This note sets out measurements from US20250051391A1, “PEPTIDE INHIBITORS AND METHODS FOR INHIBITING PROTEIN AGGREGATION IN NEURONS AND NEURODEGENERATIVE DISEASES” (THE GOVERNING COUNCIL OF THE UNIVERSITY OF TORONTO, priority 2021, published 2025).

Ends that are not written are not given here.

Assay [1] has as its system HEK293 cells. Description: LAMP1 and CD63 levels in HEK293 cells co-transfected with A53T a-syn and peptide. The format is cell-based, human. Here is the method: Infected or transfected cells were scraped from 6-well dishes and lysed with lysis buffer (50 mM Tris-HCl pH7.4, 1% Nonidet P-40, 150 mM NaCl, 1 mM EDTA, 1× protease inhibitor mixture (Sigma)) for 30 min at 4° C. The insoluble pellet was removed following a 10,000 rpm spin for 5 minutes at 4° C. Lysates were analyzed by SDS-PAGE/immunoblot using 4-20% Mini-PROTEAN Tris-glycine gels (Bio-Rad) transferred to PVDF membranes and blocked in 5% milk containing PBS-Tween-20 (0.1%) for 1 h. PVDF membranes were then incubated with specified primary antibodies followed by incubation with horseradish peroxidase-conjugated secondary antibodies (Santa Cruz Biotechnology) and detected using enhanced chemiluminescence (GE Healthcare).
After fixation, cells were permeabilized with 0.2% Triton X-100 for 15 min, washed 3 times with PBS and then incubated with blocking solution (1% BSA, 22.52 mg/mL glycine, 0.1% Tween-20 in PBS) for 1 h. Primary antibodies were diluted in blocking solution and incubated overnight at 4° C. Following three washes with PBS, cells were next incubated with fluorescent secondary antibodies diluted in blocking solution for 1 h at room temperature. Following another 3 PBS washes, nuclei were counterstained with DAPI (ThermoFisher) and then coverslips were mounted on slides using fluorescence mounting medium (DAKO) and sealed using clear nail varnish.

Assay [2] relates to rat substantia nigra dopaminergic neurons. Description: AAV A53T a-syn preclinical rat model of PD. The format is in vivo. The method, then:
Adult female Sprague-Dawley rats (250-280 g; Envigo) were pair-housed in cages with wood bedding and had access to food and water ad libitum. The animal colony was maintained in a regular 12-h light/dark cycle. All procedures were approved by the University Health Network Animal Care Committee in accordance with guidelines and regulations set by the Canadian Council on Animal Care.
Animals were secured in a stereotactic frame under isoflurane/oxygen anaesthesia and ketoprofen (5 mg/kg) analgesia. The surgical site was shaved and sterilized with iodine/betadine prior to making a 2 cm incision along the midline. The scalp was exposed and a unilateral injection targeting the SN was performed at coordinates AP−5.2 mm, ML−2 mm and DV−7.4 mm with respect to the bregma as a point of reference. For each animal, a total volume of 2 μl of virus was injected at a rate of 0.5 μl/min using a microinjection pump and 10 μl Hamilton syringe with a 26-gauge needle. For A53T groups, 1 μl (low dose) or 1.34 μl (high dose) of AAV1/2-A53T a-syn (5.1×10^12 genomic particles/ml), 0.14 μl of AAV1/2-Pdpep1.3-GFP or scramble1.3-GFP (5.1×10^12 genomic particles/ml) and 0.86 μl or 0.52 μl of sterile PBS was injected; for EV groups, 1 μl (low dose) or 1.34 μl (high dose) of AAV1/2-EV (5.1×10^12 genomic particles/ml) replaced AAV1/2-A53T. For V1S+SV2 groups, 0.58 μl of AAV1/2-V1S (1.1×10^12 genomic particles/ml), 0.58 μl of AAV1/2-SV2 (1.1×10^12 genomic particles/ml), 0.14 μl of AAV1/2-Pdpep1.3-RFP or scramble1.3-RFP (5.1×10^12 genomic particles/ml) and 0.7 μl of sterile PBS was injected; for the YFP groups, 1.16 μl of AAV1/2-YFP (1.1×10^12 genomic particles/ml), 0.14 μl of AAV1/2-Pdpep1.3-RFP or scramble1.3-RFP (5.1×10^12 genomic particles/ml) and 0.7 μl of sterile PBS was injected. At the end of virus injection, the needle remained in place for 5 minutes before gradual removal.
Spontaneous forepaw use was evaluated using the cylinder test 1 day prior to stereotactic AAV injection, at 21 days post-injection and at 41 days post-injection. Following overnight food restriction, individual rats with right paws marked black were placed into a glass cylinder in front of two mirrors and videos recorded. An observer blinded to treatment conditions later scored the videos by recording whether animals used their left or right forepaw to touch the inner glass surface upon rearing. A total of 5 min of video recording was scored and a minimum of 10 total touches was required for data inclusion (61).
Animals were uthanized by transcardial perfusion with heparinised saline under isoflurane/oxygen anaesthesia. Brains were then removed and the ventral part, including the ventral striatum, was snap frozen in liquid dry ice-cooled isopentane. A single 1 mm thick section of the ventral striatum was immediately cut, using a matrix, for high-performance liquid chromatography (HPLC) analysis of biogenic amines. The dorsal part, including the dorsal striatum, STN, and the SN, was immersion-fixed in 4% paraformaldehyde in 0.1M PBS for 2 days and cryo-protected in 30% sucrose in 0.1M PBS solution for another 3 days until the brains sank. For immunofluorescent staining, 40 μm coronal cryosections were then prepared using a sliding microtome (Leica Microsystems Inc.) and 6 series of sections were stored in cryoprotectant (30% glycerol, 30% ethylene glycol, 40% PBS) at −20° C. until use.
Immunofluorescence staining for a-syn, tyrosine hydroxylase and LAMP1 was performed by washing free-floating sections with PBS-T (0.2% Triton X-100) three times for 10 min each at room temperature. Sections were then incubated in blocking solution (1% BSA, 10% normal goat serum in PBS-T) for 1 h. After blocking, sections were incubated with primary antibodies in antibody solution (2% normal goat serum in PBS-T) overnight at RT. Sections were then washed in PBS and incubated with secondary antibodies diluted in antibody solution for 1 h in the dark at room temperature. […]

For assay [3], the system named is A53T a-syn iPSC-derived dopaminergic neurons. Description: Human iPSC-derived dopaminergic neurons with A53T a-syn mutation. The format is cell-based. The settings on record: A53T a-syn iPSC-derived dopaminergic neurons vs isogenic controls. Here is the method:
iCell Dopa neurons (A53T a-syn mutant and isogenic control) were purchased from Fujifilm Cellular Dynamics (Madison, WI, USA) and cultured as per manufacturer's instructions. Briefly, cells were plated in complete maintenance medium provided by the manufacturer on poly-L-ornithine/laminin coated plates (ibidi). Cells recovered from thawing for 24 h and then were transduced with AAV-Scramble1.3-RFP or AAV-Pdpep1.3-RFP for 48 h at which time media was completely changed. Cells were fixed using 4% PFA at 7 days post-plating.
After fixation, cells were permeabilized with 0.2% Triton X-100 for 15 min, washed 3 times with PBS and then incubated with blocking solution (1% BSA, 22.52 mg/mL glycine, 0.1% Tween-20 in PBS) for 1 h. […] Following another 3 PBS washes, nuclei were counterstained with DAPI (ThermoFisher) and then coverslips were mounted on slides using fluorescence mounting medium (DAKO) and sealed using clear nail varnish.
Confocal images of primary cortical neurons, dopaminergic neurons, and LAMP1 staining within the SN were processed using Imaris software (Oxford instruments). Z stacks were projected to give a 3D reconstruction of the field of view and mean pixel intensity per GFP^+ cell (or RFP^+ cell for V1S/SV2 experiments) was calculated for a-syn or LAMP1 signal using the software's surfaces module. […]

Setting [4] is: higher titer AAV-A53T a-syn, vs Scramble1.3 condition.

Consider DEEIERQLKALG [PDpep1.3], for which, in assay [1] (HEK293 cells expressing A53T a-syn), the “CD63 levels (MVB marker)” value is recorded as “return of CD63”. Moreover, the LAMP1 levels result in assay [1] (HEK293 cells overexpressing A53T a-syn) is on record as “restored”. For the same sequence, the “forelimb asymmetry in the cylinder test” value in assay [2] (higher titer AAV-A53T a-syn, 6 weeks) is “comparable to controls”. Further, the “dopaminergic neurodegeneration in the SN (TH+ cell counts)” value in assay [2] (higher titer AAV-A53T a-syn, 6 weeks post-injection) is on record as “mitigated”. Further, in assay [2] (setting [4]), the “striatal levels of DOPAC” value is recorded as “restored”, the “striatal levels of HVA” value is “restored” and the “striatal levels of dopamine” value is listed as “restored”. For the same sequence, the “LAMP1-positive puncta in the SN” value in assay [2] (lower titer AAV-A53T a-syn) is listed as “restored”. For the same sequence, the “total a-syn positive area in the SN” value in assay [2] (lower titer AAV-A53T a-syn, vs Scramble1.3) is recorded as “significant reduction”. In addition, in assay [2] (rats, low titer AAV-A53T a-syn, AAV-expressed GFP peptide), the “a-syn mean fluorescence intensity in cells positive for TH and GFP” value came out at 0.335±0.025 RFU. In assay [3], the LAMP1 levels entry is “returned both a-syn and LAMP1 levels to those of controls”; the a-syn levels result was “returned both a-syn and LAMP1 levels to those of controls”.
